Laboratory results taken from ChEMBL document CHEMBL5131385, “Novel piperazine based benzamide derivatives as potential anti-glioblastoma agents inhibiting cell proliferation and cell cycle progression” (Eur J Med Chem, 2022).
Activity calls are given as the source filed them. The rule behind the calls is not given here.

Key:
U-87MG ATCC [1] = assay: Induction of apoptosis in human U-87 MG cells assessed as reduction in cell count at 0.075 to 1.20 uM measured after 72 hrs by Giemsa staining based microscopic analysis; assay type: functional; conditions: dose 0.075-1.2 µM
U-87MG ATCC [2] = assay: Induction of apoptosis in human U-87 MG cells assessed as decrease in cell size at 0.075 to 1.20 uM measured after 72 hrs by Giemsa staining based microscopic analysis; assay type: functional; conditions: dose 0.075-1.2 µM
[3] = Induction of apoptosis in human U-87 MG cells assessed as necrotic cells at 1.20 uM incubated for 72 hrs by Annexin V-FITC/PI staining based flow cytometry method (reference value: 0.21 %); assay type: functional, U-87MG ATCC; conditions: dose 1.2 µM
[4] = Induction of apoptosis in human U-87 MG cells assessed as late apoptotic cells at 0.075 uM incubated for 72 hrs by Annexin V-FITC/PI staining based flow cytometry method (reference value: 0.42 %); assay type: functional, U-87MG ATCC
[5] = Induction of apoptosis in human U-87 MG cells assessed as necrotic cells at 0.075 uM incubated for 72 hrs by Annexin V-FITC/PI staining based flow cytometry method (reference value: 0.21 %); assay type: functional, U-87MG ATCC
[6] = Induction of apoptosis in human U-87 MG cells assessed as viable cells at 0.30 uM incubated for 72 hrs by Annexin V-FITC/PI staining based flow cytometry method (reference value: 96.84 %); assay type: functional, U-87MG ATCC; conditions: read-out: Activity
U-251 [7] = assay: Induction of apoptosis in human U-251 cells assessed as early apoptotic cells at 6 uM incubated for 72 hrs by Annexin V-FITC/PI staining based flow cytometry method (Rvb =1.96 %); assay type: functional
U-251 [8] = assay: Induction of apoptosis in human U-251 cells assessed as necrotic cells at 6 uM incubated for 72 hrs by Annexin V-FITC/PI staining based flow cytometry method (Rvb =0.51 %); assay type: functional
U-251 [9] = assay: Induction of apoptosis in human U-251 cells assessed as viable cells at 0.375 uM incubated for 72 hrs by Annexin V-FITC/PI staining based flow cytometry method (reference value: 96.22 %); assay type: functional; conditions: read-out: Activity
U-251 [10] = assay: Induction of cell cycle arrest in human U-251 cells assessed as decrease in accumulation at G2/M phase at 0.75 to 3 uM measured after 72 hrs by flow cytometry; assay type: functional, cell-based; conditions: dose 0.75-3 µM, DDE = dose-dependent effect
U-251 [11] = assay: Antimigratory activity in human U-251 cells assessed as inhibition of cell migration by measuring wound closure at 0.25 to 1.0 uM and measured after 24 hrs by wound healing assay; assay type: functional, cell-based; conditions: dose 0.25-1 µM, DDE = dose-dependent effect
U-251 [12] = assay: Antiinvasive activity against human U-251 cells assessed as inhibition of cell invasion at 0.25 to 1.0 uM measured after 24 hrs by transwell invasion assay; assay type: functional, cell-based; conditions: dose 0.25-1 µM, DDE = dose-dependent effect
[13] = Half life in Sprague-Dawley rat brain at 100 mg/kg, ip and measured upto 240 mins by LC-MS analysis; assay type: ADME, organism-based
[14] = AUC (0 to t) in Sprague-Dawley rat plasma at 100 mg/kg, ip and measured upto 240 mins by LC-MS analysis; assay type: ADME, organism-based; set-up: dose 100 mg/kg, time < 240 min, route ip
[15] = Ratio of drug level in Sprague-Dawley rat brain to plasma at 100 mg/kg, ip measured after 240 mins by LC-MS analysis; assay type: ADME, organism-based; conditions: read-out: logBB (converted)
[16] = Acute toxicity in Kunming mouse assessed as pathological changes in lung at 600 mg/kg, ip measured after 24 hrs by H and E staining analysis; assay type: organism-based; conditions: in vivo
U-87MG ATCC [17] = assay: Antitumor activity against human U-87 MG cells xenografted in BALB/c mouse assessed as decrease in tumor volume at 10 mg/kg,ip bid for 1 month; assay type: functional, organism-based; conditions: time 1.0 months
U-87MG ATCC [18] = assay: Antitumor activity against human U-87 MG cells xenografted in BALB/c mouse assessed assessed as inhibition of tumor cell proliferation at 10 mg/kg,ip bid for 1 month by Ki67 staining based immunohistochemical analysis; assay type: functional, organism-based; conditions: time 1.0 months
U-87MG ATCC [19] = assay: Downregulation of pRb gene expression in human U-87 MG cells at 0.075 to 1.2 uM measured after 72 hrs by western blot analysis; assay type: functional, cell-based; conditions: dose 0.075-1.2 µM
U-251 [20] = assay: Downregulation of E2F gene expression in human U-251 cells at 0.075 to 1.2 uM measured after 72 hrs by western blot analysis; assay type: functional, cell-based; conditions: dose 0.075-1.2 µM

In the case of `COCCN1CCN(c2ccc(F)cc2C(=O)Nc2ccc(CNC(=O)OCc3cccnc3)cc2)CC1`, the Activity (U-87MG ATCC [1]) was “Active”, the Activity (U-87MG ATCC [2]) was “Active” and the Activity [3] was 1.76%. It also gave an Activity [4] of 0.41%, an Activity [5] of 0.33% and a viability at 0.3 µM [6] of 94.2%. It also gave an Activity (U-251 [7]) of 4.81%, an Activity (U-251 [8]) of 2.63% and a viability at 0.375 µM (U-251 [9]) of 95.9%. For the same compound, the Activity (U-251 [10]) was “Dde”, the Activity (U-251 [11]) was “Dde” and the Activity (U-251 [12]) was “Dde”. It also gave a half-life [13] of 43.8 min, an AUC(0-t) at 4 h [14] of 90400 ng·h/mL and a Kp at 4 h [15] of 1.07. For the same compound, the Activity [16] was “Non-Toxic”, the Activity (U-87MG ATCC [17]) was “Active” and the Activity (U-87MG ATCC [18]) was “Active”. The Activity (U-87MG ATCC [19]) was “Active” and the Activity (U-251 [20]) was “Active”.
